Laboratory results as given in patent US12172959B2, “Mono- or di-substituted indole derivatives as dengue viral replication inhibitors” (priority 2015, dated 2024).

Experiments:
DENV-2 strain 16681 = assay: Tetravalent RT-qPCR assay Protocol A, serotype 2; assay type: cell-based; conditions: Dengue virus, DENV2, 72 h; Protocol A, RT-qPCR serotype 2 16681, Vero cells, day 3; read-out: EC50
Procedure, shortened: (§1)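 Vero cells in MEM with 2% FCS were infected with DENV in the presence of compound and incubated for 3 days at 37° C. Lysates underwent RT and duplex qPCR for the viral 3′UTR and β-actin. EC50 came from ΔΔCp normalized to β-actin, and CC50 from the β-actin signal.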

DENV-3 strain H87 [1] = assay: Tetravalent RT-qPCR assay Protocol A, serotype 3; assay type: cell-based; conditions: Dengue virus, DENV3, 72 h, RT-qPCR serotype 3 H87, Vero cells, day 3
Procedure, shortened: as §1

Vero cells = conditions: African green monkey
DENV-3 strain H87 [2] = assay: Tetravalent RT-qPCR assay Protocol B, serotype 3; assay type: cell-based; conditions: Dengue virus, DENV3, 168 h, RT-qPCR serotype 3 H87, 7 days
Method: The antiviral activity of the compounds of the invention was tested against DENV-1 strain Djibouti strain (D1/H/IMTSSA/98/606; Table 6), DENV-2 strain NGC (Table 7), DENV-3 strain H87 (Table 8) and DENV-4 strain SG/06K2270DK1/2005 (Table 9B) in a RT-qPCR assay. Vero-B or Vero-M cells (5×10^4) were seeded in 96-well plates. One day later, culture medium was replaced with 100 μL assay medium containing a 2×, 3× or 5× serial dilution of the compound (concentration range: 50 μg/mL-0.00038 μg/mL, 50 μg/mL-0.0076 μg/mL, and 50 μg/mL-0.00013 μg/mL, respectively) and 100 μL of dengue virus inoculum (DENV). Following a 2 hour incubation period, the cell monolayer was washed 3 times with assay medium to remove residual, non-adsorbed virus and cultures were further incubated for either 4 days (DENV-2 NGC) or 7 days (DENV-1 Djibouti strain D1/H/IMTSSA/98/606, DENV-3 strain H87 prototype, DENV-4 strain H241, and DENV-4 strain EDEN) in the presence of the inhibitor. Supernatant was harvested and viral RNA load was determined by real-time quantitative RT-PCR. The 50% effective concentration (EC50), which is defined as the compound concentration that is required to inhibit viral RNA replication by 50%, was determined using logarithmic interpolation.
RNA was isolated from 100 μL (or in some circumstances 150 μL) supernatant with the NucleoSpin 96 Virus kit (Filter Service, Duren, Germany) as described by the manufacturer. The sequences of the TaqMan primers (DENV-For, DENV-Rev; Table 5) and TaqMan probes (DENV-Probe Table 5) were selected from non-structural gene 3 (NS3) or NS5, of the respective flaviviruses using Primer Express software (version 2.0; Applied Biosystems, Lennik, Belgium). The TaqMan probe was fluorescently labelled with 6-carboxyfluorescein (FAM) at the 5′ end as the reporter dye, and with minor groove binder (MGB) at the 3′ end as the quencher (Table 5). One-step, quantitative RT-PCR was performed in a total volume of 25 μL, containing 13.9375 μL H2O, 6.25 μL master mix (Eurogentec, Seraing, Belgium), 0.375 μL forward primer, 0.375 μL reverse primer, 1 μL probe, 0.0625 μL reverse transcriptase (Eurogentec) and 3 μL sample. RT-PCR was performed using the ABI 7500 Fast Real-Time PCR System (Applied Biosystems, Branchburg, New Jersey, USA) using the following conditions: 30 min at 48° C. and 10 min at 95° C., followed by 40 cycles of 15 s at 95° C. and 1 min at 60° C. The data was analyzed using the ABI PRISM 7500 SDS software (version 1.3.1; Applied Biosystems). For absolute quantification, standard curves were generated using 10-fold dilutions of template preparations of known concentrations.

Row | SMILES | EC50 (DENV-2 strain 16681) [nM] | EC50 (DENV-3 strain H87 [1]) [nM] | CC50 (Vero cells) [nM] | EC50 (DENV-3 strain H87 [2]) [nM]
1 | COc1cc(NC(C(=O)c2c[nH]c3cc(F)ccc23)c2ccc(Cl)cc2OC)cc(S(C)(=O)=O)c1 (single isomer, unassigned) [Compound 1A, 2-(4-chloro-2-methoxyphenyl)-1-(6-fluoro-1H-indol-3-yl)-2-((3-methoxy-5-(methylsulfonyl)phenyl)amino)ethanone] | 0.28 | 23 | 4300 | < 15
2 | COc1cc(NC(C(=O)c2c[nH]c3c(C)c(F)ccc23)c2ccc(Cl)cc2OC)cc(S(C)(=O)=O)c1 (single isomer, unassigned) [Compound 2A, 2-(4-chloro-2-methoxyphenyl)-1-(6-fluoro-7-methyl-1H-indol-3-yl)-2-((3-methoxy-5-(methylsulfonyl)phenyl)amino)ethanone] | 0.24 | 19 | 4800 | < 14
3 | COc1cc(NC(C(=O)c2c[nH]c3cc(OC)c(C)cc23)c2ccc(Cl)cc2OC)cc(S(C)(=O)=O)c1 (single isomer, unassigned) [Compound 4A, 2-(4-chloro-2-methoxyphenyl)-2-((3-methoxy-5-(methyl-sulfonyl)phenyl)amino)-1-(6-methoxy-5-methyl-1H-indol-3-yl)ethanone] | 0.2 | 15 | 4200 | < 14
4 | COc1cc(NC(C(=O)c2c[nH]c3cc(OC)c(F)cc23)c2ccc(Cl)cc2OC)cc(S(C)(=O)=O)c1 (single isomer, unassigned) [Compound 5A, 2-(4-chloro-2-methoxyphenyl)-1-(5-fluoro-6-methoxy-1H-indol-3-yl)-2-((3-methoxy-5-(methylsulfonyl)phenyl)amino)ethanone] | 0.34 | 53 | 5000 | 22
5 | COc1cc(NC(C(=O)c2c[nH]c3c(C)c(OC)ccc23)c2ccc(Cl)cc2OC)cc(S(C)(=O)=O)c1 (single isomer, unassigned) [Compound 6A, 2-(4-chloro-2-methoxyphenyl)-2-((3-methoxy-5-(methyl-sulfonyl)phenyl)amino)-1-(6-methoxy-7-methyl-1H-indol-3-yl)ethanone] | 0.11 | 19 | > 25000 | < 14
